Measured values as given in patent US6525070B2, “Bipiperidine derivatives as modulators of CCR3 activity and as H1 antagonists” (AstraZeneca AB, priority 2000, dated 2003).

Row | Compound | melting point
1 | COc1cc(C(=O)N2CCC(N3CCC(Oc4ccc(Cl)cc4C)CC3)CC2)ccc1N.O=C(O)C(F)(F)F.O=C(O)C(F)(F)F | 110 to 111 °C
2 | CC(=O)O.COc1cc(C(=O)N2CCC(N3CCC(Oc4ccc(Cl)c(Cl)c4)CC3)CC2)ccc1N | 181 to 182 °C
3 | CS(=O)(=O)c1cccc(C(=O)N2CCC(N3CCC(Oc4ccc(C(F)(F)F)cc4C#N)CC3)CC2)c1.O=C(O)C(F)(F)F | 140 to 142 °C
4 | Cc1cccc(OC2CCN(C3CCN(C(=O)c4cccc(S(C)(=O)=O)c4)CC3)CC2)n1.O=C(O)C(F)(F)F | 94 to 95 °C
5 | CS(=O)(=O)n1cc(C(=O)N2CCC(N3CCC(Oc4ccc(Cl)c(Cl)c4)CC3)CC2)c2ccccc21.Cl | 104 to 105 °C
6 | CC(=O)O.CS(=O)(=O)c1cccc(C(=O)N2CCC(N3CCC(Oc4ccc(Cl)c(Cl)c4)CC3)CC2)c1 | 111 to 112 °C
7 | Cc1cc(Cl)ccc1OC1CCN(C2CCN(C(=O)c3cccc(S(C)(=O)=O)c3)CC2)CC1 [Compound 1 of Table IV, [4-(4-chloro-2-methyl-phenoxy)-[1,4′]bipiperidinyl-1′-yl]-(3-methanesulfonyl-phenyl)-methanone] | 64 to 65 °C
8 | O=S(=O)(c1ccc(-c2ccccn2)s1)N1CCC(N2CCC(Oc3ccc(F)c(F)c3)CC2)CC1 [Compound 3 of Table II, 4-(3,4-difluoro-phenoxy)-1′-(5-pyridin-2-yl-thiophene-2-sulfonyl)-[1,4′]bipiperidinyl] | 126 to 127 °C

Next, values leading:

Row | melting point | Compound
9 | 73 to 75 °C | CS(=O)(=O)c1cccc(NC(=O)N2CCC(N3CCC(Oc4ccc(Cl)c(Cl)c4)CC3)CC2)c1 [Compound 54 of Table IV, 4-(3,4-dichloro-phenoxy)-[1,4′]bipiperidinyl-1′-carboxylic acid (3-methanesulfonyl-phenyl)-amide]
10 | 149 to 150 °C | O=S(=O)(c1ccc(-c2ccccn2)s1)N1CCC(N2CCC(Oc3ccc(Cl)c(Cl)c3)CC2)CC1 [Compound 280 of Table I, 4-(3,4-dichloro-phenoxy)-1′-(5-pyridin-2-yl-thiophene-2-sulfonyl)-[1,4′]bipiperidinyl]
11 | 78 to 80 °C | CS(=O)(=O)c1ccccc1C(=O)N1CCC(N2CCC(Oc3ccc(Cl)c(Cl)c3)CC2)CC1 [Compound 293 of Table I, [4-(3,4-dichloro-phenoxy)-[1,4′]bipiperidinyl-1′-yl]-(2-methanesulfonyl-phenyl)-methanone]
12 | 111 to 112 °C | O=C(Nc1ccccc1)N1CCC(N2CCC(Oc3ccc(Cl)c(Cl)c3)CC2)CC1 [Compound 309 of Table IV, 4-(3,4-dichloro-phenoxy)-[1,4′]bipiperidinyl-1′-carboxylic acid phenylamide]
13 | 82 to 83 °C | CS(=O)(=O)c1ccc(C(=O)N2CCC(N3CCC(Oc4ccc(Cl)c(Cl)c4)CC3)CC2)s1 [Compound 332 of Table I, [4-(3,4-dichloro-phenoxy)-[1,4′]bipiperidinyl-1′-yl]-(2-methanesulfonyl-thiophen-5-yl)-methanone]
14 | 189 to 190 °C | CCn1cc(C(=O)N2CCC(N3CCC(Oc4ccc(Cl)c(Cl)c4)CC3)CC2)c(=O)c2ccc(C)nc21 [Compound 534 of Table I, 3-[4-(3,4-dichloro-phenoxy)-[1,4′]bipiperidinyl-1′-carbonyl]-1-ethyl-7-methyl-1H-[1,8]naphthyridin-4-one]
15 | 150 to 152 °C | CS(=O)(=O)Nc1cccc(C(=O)N2CCC(N3CCC(Oc4ccc(Cl)c(Cl)c4)CC3)CC2)c1 [Compound 583 of Table I, N-{3-[4-(3,4-dichloro-phenoxy)-[1,4′]bipiperidinyl-1′-carbonyl]-phenyl}-methanesulfonamide]
16 | 219 to 220 °C | CS(=O)(=O)Nc1ccccc1C(=O)N1CCC(N2CCC(Oc3ccc(Cl)c(Cl)c3)CC2)CC1 [Compound 587 of Table I, N-{2-[4-(3,4-dichloro-phenoxy)-[1,4′]bipiperidinyl-1′-carbonyl]-phenyl}-methanesulfonamide]
17 | 76 to 77 °C | O=C(C(CN1CCNCC1)c1ccccc1)N1CCC(N2CCC(Oc3ccc(Cl)c(Cl)c3)CC2)CC1 (centres unmarked) [Compound 595 of Table I, 1-[4-(3,4-dichloro-phenoxy)-[1,4′]bipiperidinyl-1′-yl]-2-phenyl-3-piperazin-1-yl-propan-1-one]
